Data taken from ChEMBL document CHEMBL3044608, “Synthesis and fungicidal activity of hydrazones containing 4-methylbenzo[d]thiazole moiety” (2012).

Assays:
Type in all cases: functional
[1] = tested on: Ustilaginoidea; assay: microbe, parasite or virus in culture; details: read-out: GI
Description: Fungicidal activity against Ustilaginoidea oryzae assessed as inhibition rate of circle mycelium growth at 500 ug/ml

[2] = tested on: Sclerotinia sclerotiorum; assay: microbe, parasite or virus in culture; details: read-out: GI
Description: Fungicidal activity against Sclerotinia sclerotiorum assessed as inhibition rate of circle mycelium growth at 500 ug/ml

[3] = tested on: Botrytis cinerea; assay: microbe, parasite or virus in culture; details: read-out: GI
Description: Fungicidal activity against Botryotinia fuckeliana assessed as inhibition rate of circle mycelium growth at 500 ug/ml

[4] = tested on: Alternaria alternata; assay: microbe, parasite or virus in culture; details: read-out: GI
Description: Fungicidal activity against Alternaria alternata assessed as inhibition rate of circle mycelium growth at 500 ug/ml

[5] = tested on: Phytophthora capsici; assay: microbe, parasite or virus in culture; details: read-out: GI
Description: Fungicidal activity against Phytophthora capsici assessed as inhibition rate of circle mycelium growth at 500 ug/ml

[6] = tested on: Fusarium graminearum; assay: microbe, parasite or virus in culture; details: read-out: GI
[7] = tested on: Rhizoctonia solani; assay: microbe, parasite or virus in culture; details: read-out: GI
Description: Fungicidal activity against Rhizoctonia solani assessed as inhibition rate of circle mycelium growth at 500 ug/ml

[8] = tested on: Rhizoctonia solani; details: at 100 µg/mL
Description: Fungicidal activity against Rhizoctonia solani assessed as inhibition rate of circle mycelium growth at 100 ug/ml relative to control

[9] = tested on: Rhizoctonia solani; details: at 400 µg/mL
Description: Fungicidal activity against Rhizoctonia solani assessed as inhibition rate of circle mycelium growth at 400 ug/ml relative to control

[10] = tested on: Rhizoctonia solani; details: at 200 µg/mL
Description: Fungicidal activity against Rhizoctonia solani assessed as inhibition rate of circle mycelium growth at 200 ug/ml relative to control

Compound | inhibition of growth at 500 µg/mL [1] [%] | inhibition of growth at 500 µg/mL [2] [%] | inhibition of growth at 500 µg/mL [3] [%] | inhibition of growth at 500 µg/mL [4] [%] | inhibition of growth at 500 µg/mL [5] [%] | inhibition of growth at 500 µg/mL [6] [%] | inhibition of growth at 500 µg/mL [7] [%] | Efficacy [8] [%] | Efficacy [9] [%] | Efficacy [10] [%]
C/C(=N\Nc1nc2c(C)cccc2s1)c1cccc(Cl)c1 | 0 | 43.8 | 0 | 0 | 0 | 0 | 0 |  |  | 
COc1ccccc1/C(C)=N/Nc1nc2c(C)cccc2s1 | 0 | 3.1 | 0 | 0 | 0 | 0 | 60 |  |  | 
COc1ccc(/C(C)=N/Nc2nc3c(C)cccc3s2)cc1 | 0 | 50 | 37.5 | 30.4 | 0 | 0 | 95 | 10 | 50 | 20
C/C(=N\Nc1nc2c(C)cccc2s1)c1ccc(Br)cc1 | 0 | 46.9 | 0 | 0 | 0 | 0 | 50 |  |  | 
C/C(=N\Nc1nc2c(C)cccc2s1)C(C)C | 5 | 90.6 | 70.8 | 56.5 | 0 | 0 | 60 |  |  | 
Cc1cccc2sc(NN=C3CCCC3)nc12 | 25 | 62.5 | 70.8 | 52.2 | 0 | 36.8 | 85 |  |  | 
Cc1cccc2sc(NN=C3CCCCC3)nc12 | 0 | 43.8 | 66.7 | 47.8 | 0 | 0 | 0 |  |  | 
CCCC1COC(Cn2cncn2)(c2ccc(Cl)cc2Cl)O1 (configuration not stated) [PROPICONAZOLE] | 0 | 87.5 | 0 | 0 | 0 | 0 | 90 | 40 | 90 | 60
Cc1cccc2sc3nncn3c12 [TRICYCLAZOLE] | 0 | 72.7 | 52.8 | 0 | 27.8 | 13.6 | 85 | 22 | 57 | 33
